Results: patent publication US9562060B2, “Heterocyclic pyridone compound, and intermediate, preparation method and use thereof” (SHANGHAI HUILUN LIFE SCIENCE & TECHNOLOGY CO., LTD, priority 2011, dated 2017)
pIC50: −log10 of the molar value. Where two headings read alike, the source gives them in different places.

Experiments:
[1] = system: Human gastric cancer cell SNU-5; test: Inhibition of in vitro proliferation of human gastric cancer cell SNU-5 (SRB); type: cell-based; conditions: SNU-5 cells, 72-hr agent treatment, read-out: Strength of activity (inhibition on SNU-5, IC50)
Method: Human gastric cancer cells SNU-5 are cultured in an IMDM medium containing 20% fetal bovine serum, and the culture conditions are 37° C. and 5% CO2. Tumor cells are inoculated in a 96-well plate, and after 24-hr sidewall growth, 9 different concentrations of (1 to 30000 nM) an agent are added, after 72-hr agent treatment, the medium is discarded, the cells are fixed by cold trichloroacetic acid, and then dyed with a sulforhodamine B (SRB) solution. Unbound SRB is washed off, and SRB bound with protein was dissolved with Tris, the OD is determined at a wavelength of 510 nm by a microplate reader, and the cell growth inhibition rate is calculated according to the following equation: Inhibition rate=(OD of control well-OD of administered well)/OD of control well×100%
According to the inhibition rates of different concentrations, the half inhibitory concentration IC50 is calculated by using a Logit method.

c-Met kinase = target: T1, c-Met kinase (Homo sapiens, UniProt P08581); test: Inhibitory activity of compound to c-Met kinases (Z'-LYTE kinase assay kit); type: biochemical; conditions: Tyr 6 substrate peptide, read-out: Strength of activity (inhibition on c-Met kinase, IC50)
T1 construct: purchased Invitrogen PV3143
T1 sequence (P08581 25-1390): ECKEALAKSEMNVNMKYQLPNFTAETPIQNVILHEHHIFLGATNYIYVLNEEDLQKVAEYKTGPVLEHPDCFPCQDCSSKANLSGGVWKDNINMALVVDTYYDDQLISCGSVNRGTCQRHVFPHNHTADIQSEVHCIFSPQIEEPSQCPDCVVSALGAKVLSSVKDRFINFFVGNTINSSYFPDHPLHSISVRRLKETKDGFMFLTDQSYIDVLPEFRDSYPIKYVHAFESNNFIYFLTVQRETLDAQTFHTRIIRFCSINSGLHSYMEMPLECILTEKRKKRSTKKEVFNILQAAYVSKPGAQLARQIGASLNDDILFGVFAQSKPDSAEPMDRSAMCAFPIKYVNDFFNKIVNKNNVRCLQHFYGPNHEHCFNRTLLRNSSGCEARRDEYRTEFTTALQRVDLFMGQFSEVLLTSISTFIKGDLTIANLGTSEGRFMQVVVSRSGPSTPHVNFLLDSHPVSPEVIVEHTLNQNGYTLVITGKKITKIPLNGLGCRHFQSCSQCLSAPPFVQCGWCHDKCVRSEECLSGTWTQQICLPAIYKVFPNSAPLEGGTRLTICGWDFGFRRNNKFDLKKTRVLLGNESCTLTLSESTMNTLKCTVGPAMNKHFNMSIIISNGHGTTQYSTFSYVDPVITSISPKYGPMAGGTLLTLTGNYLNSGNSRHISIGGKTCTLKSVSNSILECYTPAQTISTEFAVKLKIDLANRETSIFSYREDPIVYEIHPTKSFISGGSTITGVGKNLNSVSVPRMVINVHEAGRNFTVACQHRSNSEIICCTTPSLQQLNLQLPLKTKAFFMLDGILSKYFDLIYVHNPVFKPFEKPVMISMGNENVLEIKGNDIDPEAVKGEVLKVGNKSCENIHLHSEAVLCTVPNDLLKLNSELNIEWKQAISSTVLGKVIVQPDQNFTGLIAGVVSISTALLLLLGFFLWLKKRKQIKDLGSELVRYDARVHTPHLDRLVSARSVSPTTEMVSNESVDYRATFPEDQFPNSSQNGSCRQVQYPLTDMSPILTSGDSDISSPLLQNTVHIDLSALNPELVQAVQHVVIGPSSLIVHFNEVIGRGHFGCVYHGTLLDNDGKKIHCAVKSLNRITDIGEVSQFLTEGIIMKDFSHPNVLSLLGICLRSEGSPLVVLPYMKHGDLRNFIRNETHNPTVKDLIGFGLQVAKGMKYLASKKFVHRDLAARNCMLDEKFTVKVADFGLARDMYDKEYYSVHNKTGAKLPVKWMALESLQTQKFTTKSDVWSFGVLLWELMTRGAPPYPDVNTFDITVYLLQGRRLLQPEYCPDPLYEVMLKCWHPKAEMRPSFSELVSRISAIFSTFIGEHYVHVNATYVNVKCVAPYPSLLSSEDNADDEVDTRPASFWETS
Method: The inhibitory activity of the compound to c-Met kinases in vitro is determined through the following method.
The method described below can be used to determine the inhibiting capacity of the compound of the present invention on the c-Met kinase activity, and the inhibiting capacity is represented by IC50. The half inhibitory concentration IC50 (a concentration of the compound for inhibiting the enzyme activity to 50%) of the compound is obtained by: mixing and reacting a certain amount of kinase with a specific substrate and different concentrations of test compound, and then labeling the substrate with an anti-phosphotyrosine antibody and a […], and finally quantitatively determining the c-Met kinase activity through a time-resolved fluorescence method.
The specific experiment is implemented by using a Z′-LYTE kinase assay kit (Invitrogen, item PV4122). First, the test compound is diluted into 8 different concentrations from 100 μM at an interval of 1:5 with an ATP solution (Invitrogen, item PV3227); 5 μL 2×c-Met (Invitrogen, item PV3143) and 2×Z′-LYTE Tyr 6 substrate peptide are respectively taken up, and added to a 384-well microtiter plate, 5 μL diluted different concentrations of test compound are added in sequence, and the lid is closed. The microtiter plate is incubated for 60 min at room temperature (20° C. to 25° C.); and then 5 μL […] is added, and the lid is closed. The microtiter plate is incubated for 60 min at room temperature (20° C. to 25° C.); and then 5 μL termination reagent is added to the reaction well, to terminate the reaction. Finally, the fluorescence intensity (OD400) of each well is determined in a fluorescence analyzer (excitation wavelength: 400 nm). The inhibition rate is calculated, and the half inhibitory concentration (IC50) of the compound is calculated according to the inhibition rates of different concentrations.
For a negative control group, except that test compound (replaced by 5 μL ATP solution) is not added, all the other reagents are added. In addition, an enzyme-free control group (that is, blank group) is set.

Row | pIC50 [1] | pIC50 (c-Met kinase) | pIC50 ([1]; Homo sapiens) | Compound
1 | 6.30 to 7.00 | 7.00 to 8.00 |  | Cn1cnc(-c2cc3nccc(Oc4ccc(NC(=O)c5cc6ncsc6n(-c6ccc(F)cc6)c5=O)cc4F)c3s2)c1 [Embodiment 6]
2 |  | 7.00 to 8.00 | 6.30 to 7.00 | CCn1cnc(-c2cc3nccc(Oc4ccc(NC(=O)c5cc6ncsc6n(-c6ccc(F)cc6)c5=O)cc4F)c3s2)c1 [Embodiment 7]
3 |  | 7.00 to 8.00 | 5.30 to 6.30 | Cc1n[nH]c2nccc(Oc3ccc(NC(=O)c4cc5ncsc5n(-c5ccc(F)cc5)c4=O)cc3F)c12 [Embodiment 8]
4 | 6.30 to 7.00 | > 8.00 |  | O=C(Nc1ccc(Oc2ccnc(NC(=O)N3CCCC3)c2)c(F)c1)c1cc2ncsc2n(-c2ccc(F)cc2)c1=O [Embodiment 9]
5 |  | 6.00 to 7.00 | > 7.00 | CN1CCN(C(=O)Nc2cc(Oc3ccc(NC(=O)c4cc5ncsc5n(-c5ccc(F)cc5)c4=O)cc3F)ccn2)CC1 [Embodiment 10]
6 |  | 7.00 to 8.00 |  | O=C(Nc1ccc(Oc2ccnc(NC(=O)N3CCOCC3)c2)c(F)c1)c1cc2ncsc2n(-c2ccc(F)cc2)c1=O [Embodiment 11]
7 |  | 7.00 to 8.00 | 6.30 to 7.00 | O=C(Nc1ccc(Oc2ccnc(NC(=O)N3CCC(O)CC3)c2)c(F)c1)c1cc2ncsc2n(-c2ccc(F)cc2)c1=O [Embodiment 12]
8 |  | 7.00 to 8.00 |  | CN(C)CC1CCN(C(=O)Nc2cc(Oc3ccc(NC(=O)c4cc5ncsc5n(-c5ccc(F)cc5)c4=O)cc3F)ccn2)CC1 [Embodiment 13]
9 |  | 7.00 to 8.00 |  | CN(CCO)C(=O)Nc1cc(Oc2ccc(NC(=O)c3cc4ncsc4n(-c4ccc(F)cc4)c3=O)cc2F)ccn1 [Embodiment 14]
10 |  | 7.00 to 8.00 |  | CN(C)C/C=C/C(=O)Nc1cc(Oc2ccc(NC(=O)c3cc4ncsc4n(-c4ccc(F)cc4)c3=O)cc2F)ccn1 [Embodiment 15]
11 |  | 6.00 to 7.00 | 6.30 to 7.00 | CN1CCN(C(=O)Nc2nccc(Oc3ccc(NC(=O)c4cc5ncsc5n(-c5ccc(F)cc5)c4=O)cc3F)c2Cl)CC1 [Embodiment 16]
12 |  | > 8.00 | 6.30 to 7.00 | O=C(Nc1ccc(Oc2ccnc(NC(=O)N3CCOCC3)c2Cl)c(F)c1)c1cc2ncsc2n(-c2ccc(F)cc2)c1=O [Embodiment 17]
13 |  | 6.00 to 7.00 | 5.30 to 6.30 | Nc1cc(Oc2ccc(NC(=O)c3cc4ncsc4n(-c4ccccc4CCO)c3=O)cc2F)ccn1 [Embodiment 18]
14 |  | > 8.00 |  | Nc1nccc(Oc2ccc(NC(=O)c3cc4ncsc4n(-c4ccccc4CCO)c3=O)cc2F)c1Cl [Embodiment 19]
15 |  | 6.00 to 7.00 | > 7.00 | COc1ccc2c(Oc3ccc(NC(=O)c4cc5ncsc5n(-c5ccccc5CCO)c4=O)cc3F)ccnc2c1 [Embodiment 20]
16 |  | 7.00 to 8.00 | > 7.00 | O=C(Nc1ccc(Oc2ccnc3[nH]ccc23)c(F)c1)c1cc2ncsc2n(-c2ccccc2CCO)c1=O [Embodiment 21]
17 |  | < 6.00 | 5.30 to 6.30 | COc1cc2c(Oc3ccc(NC(=O)c4cc5ncsc5n(-c5ccccc5CCO)c4=O)cc3F)ccnc2cc1OCCCN1CCOCC1 [Embodiment 22]
18 |  | 7.00 to 8.00 | 6.30 to 7.00 | CN(C)c1nc2cc(C(=O)Nc3ccc(Oc4ccnc(N)c4Cl)c(F)c3)c(=O)n(-c3ccc(F)cc3)c2s1 [Embodiment 23]
19 |  | > 8.00 | 6.30 to 7.00 | CN(C)c1nc2cc(C(=O)Nc3ccc(Oc4ccnc(N)c4)c(F)c3)c(=O)n(-c3ccc(F)cc3)c2s1 [Embodiment 24]
20 |  | 6.00 to 7.00 | 5.30 to 6.30 | COc1ccc2c(Oc3ccc(NC(=O)c4cc5nc(N(C)C)sc5n(-c5ccc(F)cc5)c4=O)cc3F)ccnc2c1 [Embodiment 25]
21 |  | 7.00 to 8.00 | 6.30 to 7.00 | CN(C)c1nc2cc(C(=O)Nc3ccc(Oc4ccnc5[nH]ccc45)c(F)c3)c(=O)n(-c3ccc(F)cc3)c2s1 [Embodiment 26]
22 |  | 7.00 to 8.00 |  | COc1cc2c(Oc3ccc(NC(=O)c4cc5nc(N(C)C)sc5n(-c5ccc(F)cc5)c4=O)cc3F)ccnc2cc1OCCCN1CCOCC1 [Embodiment 27]
23 |  | 6.00 to 7.00 | 5.30 to 6.30 | Cn1ncc2cc(C(=O)Nc3ccc(Oc4ccnc(N)c4)c(F)c3)c(=O)n(-c3ccc(F)cc3)c21 [Embodiment 28]
24 |  | > 8.00 | > 7.00 | Cn1ncc2cc(C(=O)Nc3ccc(Oc4ccnc(N)c4Cl)c(F)c3)c(=O)n(-c3ccc(F)cc3)c21 [Embodiment 29]

Row | pIC50 [1] | pIC50 (c-Met kinase) | pIC50 ([1]; Homo sapiens) | Compound
25 |  | 6.00 to 7.00 |  | COc1ccc2c(Oc3ccc(NC(=O)c4cc5cnn(C)c5n(-c5ccc(F)cc5)c4=O)cc3F)ccnc2c1 [Embodiment 30]
26 |  | 7.00 to 8.00 | 6.30 to 7.00 | Cn1ncc2cc(C(=O)Nc3ccc(Oc4ccnc5[nH]ccc45)c(F)c3)c(=O)n(-c3ccc(F)cc3)c21 [Embodiment 31]
27 |  | 6.00 to 7.00 | 6.30 to 7.00 | COc1cc2c(Oc3ccc(NC(=O)c4cc5cnn(C)c5n(-c5ccc(F)cc5)c4=O)cc3F)ccnc2cc1OCCCN1CCOCC1 [Embodiment 32]
28 |  | 7.00 to 8.00 |  | Cn1cnc2cc(C(=O)Nc3ccc(Oc4ccnc(N)c4Cl)c(F)c3)c(=O)n(-c3ccc(F)cc3)c21 [Embodiment 33]
29 |  | 6.00 to 7.00 |  | Cn1cnc2cc(C(=O)Nc3ccc(Oc4ccnc(N)c4)c(F)c3)c(=O)n(-c3ccc(F)cc3)c21 [Embodiment 35]
30 |  | 7.00 to 8.00 | 5.30 to 6.30 | Cn1cnc2cc(C(=O)Nc3ccc(Oc4ccnc5[nH]ccc45)c(F)c3)c(=O)n(-c3ccc(F)cc3)c21 [Embodiment 36]
31 |  | > 8.00 | 6.30 to 7.00 | COc1cc2c(Oc3ccc(NC(=O)c4cc5ncn(C)c5n(-c5ccc(F)cc5)c4=O)cc3F)ccnc2cc1OCCCN1CCOCC1 [Embodiment 37]
32 |  | 6.00 to 7.00 | 5.30 to 6.30 | CN1CCOc2cc(C(=O)Nc3ccc(Oc4ccnc(N)c4Cl)c(F)c3)c(=O)n(-c3ccc(F)cc3)c21 [Embodiment 38]
33 |  | 7.00 to 8.00 |  | CN1CCOc2cc(C(=O)Nc3ccc(Oc4ccnc(N)c4)c(F)c3)c(=O)n(-c3ccc(F)cc3)c21 [Embodiment 39]
34 |  | > 8.00 |  | COc1ccc2c(Oc3ccc(NC(=O)c4cc5c(n(-c6ccc(F)cc6)c4=O)N(C)CCO5)cc3F)ccnc2c1 [Embodiment 40]
35 |  | 6.00 to 7.00 |  | COc1cc2c(Oc3ccc(NC(=O)c4cc5c(n(-c6ccc(F)cc6)c4=O)N(C)CCO5)cc3F)ccnc2cc1OCCCN1CCOCC1 [Embodiment 42]
36 |  | 7.00 to 8.00 |  | CN1CCOc2c1cc(C(=O)Nc1ccc(Oc3ccnc(N)c3)c(F)c1)c(=O)n2-c1ccc(F)cc1 [Embodiment 43]
37 |  | 6.00 to 7.00 |  | COc1cc2c(Oc3ccc(NC(=O)c4cc5c(n(-c6ccc(F)cc6)c4=O)OCCN5C)cc3F)ccnc2cc1OCCCN1CCOCC1 [Embodiment 45]
38 |  | 7.00 to 8.00 |  | CN1CCOc2c1cc(C(=O)Nc1ccc(Oc3ccnc(N)c3Cl)c(F)c1)c(=O)n2-c1ccc(F)cc1 [Embodiment 46]
39 |  | > 8.00 |  | COc1ccc2c(Oc3ccc(NC(=O)c4cc5c(n(-c6ccc(F)cc6)c4=O)OCCN5C)cc3F)ccnc2c1 [Embodiment 47]
40 |  | 6.00 to 7.00 |  | CCOc1c(C(=O)Nc2ccc(Oc3ccnc(N)c3)c(F)c2)c(=O)n(-c2ccc(F)cc2)c2scnc12 [Embodiment 48]
41 |  | > 8.00 |  | CCOc1c(C(=O)Nc2ccc(Oc3ccnc(N)c3Cl)c(F)c2)c(=O)n(-c2ccc(F)cc2)c2scnc12 [Embodiment 49]
42 |  | 7.00 to 8.00 |  | CCOc1c(C(=O)Nc2ccc(Oc3ccnc4cc(OC)ccc34)c(F)c2)c(=O)n(-c2ccc(F)cc2)c2scnc12 [Embodiment 50]
43 | 6.30 to 7.00 | 6.00 to 7.00 |  | CCOc1c(C(=O)Nc2ccc(Oc3ccnc4[nH]ccc34)c(F)c2)c(=O)n(-c2ccc(F)cc2)c2scnc12 [Embodiment 51]
44 |  | 7.00 to 8.00 |  | CN(C)c1c(C(=O)Nc2ccc(Oc3ccnc(N)c3)c(F)c2)c(=O)n(-c2ccc(F)cc2)c2scnc12 [Embodiment 52]
45 |  | > 8.00 |  | CN(C)c1c(C(=O)Nc2ccc(Oc3ccnc(N)c3Cl)c(F)c2)c(=O)n(-c2ccc(F)cc2)c2scnc12 [Embodiment 53]
46 |  | 7.00 to 8.00 |  | CN(C)c1c(C(=O)Nc2ccc(Oc3ccnc4[nH]ccc34)c(F)c2)c(=O)n(-c2ccc(F)cc2)c2scnc12 [Embodiment 55]
47 |  | 6.00 to 7.00 |  | CN(CCO)c1c(C(=O)Nc2ccc(Oc3ccnc(N)c3Cl)c(F)c2)c(=O)n(-c2ccc(F)cc2)c2scnc12 [Embodiment 57]
48 |  | 6.00 to 7.00 |  | CN(CCO)c1c(C(=O)Nc2ccc(Oc3ccnc4[nH]ccc34)c(F)c2)c(=O)n(-c2ccc(F)cc2)c2scnc12 [Embodiment 59]
